This is an account of results in patent publication US20130237444A1, “GBM MOLECULAR CONTEXTS ASSOCIATED WITH PATIENT SURVIVAL” (Translational Genomics Research Institute, priority 2012, published 2013).

The subject of assay [1] is Proneural-mapped xenografts. Put plainly: Survival of drug-treated GBM mouse xenografts vs control, Proneural-mapped. Type of assay: in vivo. The conditions noted are these: Proneural subtype, total 2 xenografts; for frequency of xenograft models with survival difference NS (statistically Not Significant): Cox regression; for frequency of xenograft models with significantly longer survival than control (treatment-sensitive) / frequency of xenograft models with significantly shorter survival than control (treatment-resistant): Cox regression p-value threshold 0.05.
Procedure: (§1) Forty GBM mouse xenografts were used. […] These xenografts were also mapped to the four molecular subtypes: proneural, neural, classical, and mesenchymal.
(§2) Characterizing drug responsiveness for GBM subtypes using the mapped xenografts: Out of 40 xenograft models, 21 models were treated with 4 different treatments and their survival rates were compared against control groups.

Assay [2] concerns Mesenchymal-mapped xenograft models. In words: Survival of drug-treated GBM mouse xenografts vs control, Mesenchymal-mapped. The note with it: for frequency of xenograft models with survival difference NS (statistically Not Significant) / frequency of xenograft models with significantly longer survival than control (treatment-sensitive) / frequency of xenograft models with significantly shorter survival than control (treatment-resistant): Mesenchymal subtype, total 4 xenografts; for frequency of xenograft models with survival difference NS (statistically Not Significant): Cox regression; for frequency of xenograft models with significantly longer survival than control (treatment-sensitive) / frequency of xenograft models with significantly shorter survival than control (treatment-resistant): Cox regression p-value threshold 0.05; for subtype-specific drug response (sensitivity or resistance): Mesenchymal-mapped xenograft models, survival analysis.
Procedure: as §1, §2

Assay [3] deals with Classical-mapped xenograft models. Put plainly: Survival of drug-treated GBM mouse xenografts vs control, Classical-mapped. The note with it: for frequency of xenograft models with survival difference NS (statistically Not Significant) / frequency of xenograft models with significantly longer survival than control (treatment-sensitive) / frequency of xenograft models with significantly shorter survival than control (treatment-resistant): Classical subtype, total 2 xenografts; for frequency of xenograft models with survival difference NS (statistically Not Significant): Cox regression; for frequency of xenograft models with significantly longer survival than control (treatment-sensitive) / frequency of xenograft models with significantly shorter survival than control (treatment-resistant): Cox regression p-value threshold 0.05.
Procedure: as §1, §2

Assay [4] concerns Neural-mapped xenograft models. Put plainly: Survival of drug-treated GBM mouse xenografts vs control, Neural-mapped. The assay is classed as in vivo. The conditions noted are these: Neural subtype, total 3 xenografts; for frequency of xenograft models with survival difference NS (statistically Not Significant): Cox regression; for frequency of xenograft models with significantly longer survival than control (treatment-sensitive) / frequency of xenograft models with significantly shorter survival than control (treatment-resistant): Cox regression p-value threshold 0.05.
Procedure: as §1, §2

On to `Cn1c(=O)n(-c2ccc(C(C)(C)C#N)cc2)c2c3cc(-c4cnc5ccccc5c4)ccc3ncc21` [BEZ235], for which, in assay [1], the “frequency of xenograft models with survival difference NS (statistically Not Significant)” value is recorded as 1, the “frequency of xenograft models with significantly longer survival than control (treatment-sensitive)” value is 1 and the “frequency of xenograft models with significantly shorter survival than control (treatment-resistant)” value is 0. Further, in assay [2], the “frequency of xenograft models with survival difference NS (statistically Not Significant)” value came out at 3, the “frequency of xenograft models with significantly longer survival than control (treatment-sensitive)” value is 0, the “frequency of xenograft models with significantly shorter survival than control (treatment-resistant)” value turned out to be 1 and the “subtype-specific drug response (sensitivity or resistance)” value was “resistance”. Further, in assay [3], the “frequency of xenograft models with survival difference NS (statistically Not Significant)” value came out at 2, the “frequency of xenograft models with significantly longer survival than control (treatment-sensitive)” value came to 0 and the “frequency of xenograft models with significantly shorter survival than control (treatment-resistant)” value was found to be 0. Further, in assay [4], the “frequency of xenograft models with survival difference NS (statistically Not Significant)” value is recorded as 3, the “frequency of xenograft models with significantly longer survival than control (treatment-sensitive)” value was 0 and the “frequency of xenograft models with significantly shorter survival than control (treatment-resistant)” value stood at 0.
Regarding `CNC(=O)c1cc(Oc2ccc(NC(=O)Nc3ccc(Cl)c(C(F)(F)F)c3)cc2)ccn1` [Sorafenib, sorafenib], the “frequency of xenograft models with survival difference NS (statistically Not Significant)” value in assay [1] was 1; in assay [2], 1; in assay [3] it was 1; in assay [4] it was 3. Further, the “frequency of xenograft models with significantly longer survival than control (treatment-sensitive)” value in assay [1] was 1; in assay [2] it was 1; in assay [3] it was 0; in assay [4], 0. The “frequency of xenograft models with significantly shorter survival than control (treatment-resistant)” value in assay [1] is 0; in assay [2], 2; in assay [3], 1; in assay [4], 0. For the same compound, the “subtype-specific drug response (sensitivity or resistance)” value is given as “resistance” in assay [2] and “resistance” in assay [3] (Classical-mapped xenograft models, survival analysis).
On to `Cn1nnc2c(C(N)=O)ncn2c1=O` [TMZ, temozolomide], for which the “frequency of xenograft models with survival difference NS (statistically Not Significant)” value is on record as 1 in assay [1], 2 in assay [2], 1 in assay [3] and 2 in assay [4]. Besides, the “frequency of xenograft models with significantly longer survival than control (treatment-sensitive)” value in assay [1] is reported as 1; in assay [2], 2; in assay [3], 1; in assay [4] it was 1. The “frequency of xenograft models with significantly shorter survival than control (treatment-resistant)” value in assay [1], in assay [2], in assay [3] and in assay [4] was 0 in each case.
